According to patent US11667652B2, “MCL1 inhibitors” (Gilead Sciences, Inc., priority 2019, dated 2023):

molecular target: MCL1/Bim (Homo sapiens (Human), UniProt Q07820); assay: MCL1/Bim Binding AlphaLISA Assay; details: recombinant human 6xHis-MCL1 (171-327), biotinylated Bim peptide (51-76)
Experimental: MCL1/Bim Binding AlphaLISA Assay.
Inhibition of the MCL1 and Bim interaction was measured in the following AlphaLISA assay.
Recombinant human MCL1 protein (C-terminal 6×His Tagged MCL1 containing residues 171-327) was generated at Gilead Sciences, Inc. (Foster City, Calif.). A biotinylated peptide derived from human Bim (residues 51-76) was purchased from CPC Scientific (Sunnyvale, Calif.). (CPC 834113). AlphaLISA anti-6His- acceptor beads (AL128R), AlphaScreen Streptavidin donor beads (6760002B), and Proxiplate-384 Plus (6008289) were purchased from PerkinElmer.
The AlphaLISA assay was performed in a 384-well Proxiplate in a total volume of […]. The reaction mixture contained 0.0625 nM 6×His-MCL1 (171-327), 0.0625 nM biotinylated-Bim peptide, 10 μg/mL AlphaLISA anti-6×His-AlphaLISA acceptor beads, 40 μg/mL AlphaScreen streptavidin donor beads, and serially diluted test compounds in the binding buffer (20 mM Hepes, pH 7.5 (Teknova H1035); 150 mM NaCl (Promega V4221); 0.002% Brij 35 (Thermo Scientific 20150); 1 mM Dithiothreitol (DTT) Solution (Affymetrix 70726); 0.01% BSA (BioLabs B9000S)). 1,000× test compounds were pre-spotted onto 384-well Proxiplate (Labcyte Echo) by Echo 555 Liquid Handler (Labcyte Inc., San Jose, Calif.) followed by incubation of 5 μL MCL1(171-327) for 1 hour. Then 5 μL Bim (51-76) was added and incubated for 2 hours. Five μL AlphaLISA anti-6His-AlphaLISA acceptor beads were then added for 1 hour followed by addition of 5 μL AlphaScreen streptavidin donor beads for 1 hour. The reaction plates were then read on an Envision multimode reader (PerkinElmer) using AlphaScreen settings. Percent inhibition was calculated as shown below: % Inhibition=100%*(Well−Neg)/(Pos−Neg) Neg: negative control, DMSO Pos: positive control, no MCL1 protein, no biotinylated-Bim peptide

MCL1/Bim, sequence (Q07820 171-327): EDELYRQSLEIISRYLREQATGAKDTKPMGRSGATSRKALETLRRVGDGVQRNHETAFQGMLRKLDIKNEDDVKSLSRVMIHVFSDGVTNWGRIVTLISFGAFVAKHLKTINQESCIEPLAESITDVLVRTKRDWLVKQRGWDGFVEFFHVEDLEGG

Compound | IC50
C[C@H]1C/C=C/[C@H](O)[C@@H]2CC[C@H]2CN2C[C@@]3(CCCc4cc(Cl)ccc43)COc3ccc(cc32)C(=O)N=[S@](=O)(Nc2nc3nnnn3c3nn(C)cc23)C1 (mixture of isomers) [Example 31] | 0.064 nM
COc1nn(C)cc1C(=O)N[S@@]1(=O)=NC(=O)c2ccc3c(c2)N(C[C@@H]2CC[C@H]2[C@@H](OCC(O)CO)/C=C/C[C@H](C)C1)C[C@@]1(CCCc2cc(Cl)ccc21)CO3 (mixture of isomers) [Example 57] | 0.089 nM
COc1nn(C)cc1C(=O)N[S@@]1(=O)=NC(=O)c2ccc3c(c2)N(C[C@@H]2CC[C@H]2[C@@H](OC)/C=C/C(O)(CC(=O)N(C)C)[C@H](C)C1)C[C@@]1(CCCc2cc(Cl)ccc21)CO3 (mixture of isomers) [Example 124] | 0.033 nM
CO[C@H]1/C=C/C[C@H](C)C[S@@](=O)(Nc2ncc(C#N)cn2)=NC(=O)c2ccc3c(c2)N(C[C@@H]2CC[C@H]21)C[C@@]1(CCCc2cc(Cl)ccc21)CO3 [Example 2] | 1.89 nM
CO[C@H]1/C=C/C[C@H](C)C[S@@](=O)(Nc2ncccn2)=NC(=O)c2ccc3c(c2)N(C[C@@H]2CC[C@H]21)C[C@@]1(CCCc2cc(Cl)ccc21)CO3 [Example 3] | 0.957 nM
CO[C@H]1/C=C/C[C@H](C)C[S@@](=O)(Nc2nccc3nn(C)cc23)=NC(=O)c2ccc3c(c2)N(C[C@@H]2CC[C@H]21)C[C@@]1(CCCc2cc(Cl)ccc21)CO3 [Example 7] | 1.74 nM
COCCn1cc2c(N[S@@]3(=O)=NC(=O)c4ccc5c(c4)N(C[C@@H]4CC[C@H]4[C@@H](OC)/C=C/C[C@H](C)C3)C[C@@]3(CCCc4cc(Cl)ccc43)CO5)ncnc2n1 [Example 14] | 0.965 nM
COc1nn(C)cc1C(=O)N[S@@]1(=O)=NC(=O)c2ccc3c(c2)N(C[C@@H]2CC[C@H]2[C@@H](O)C#CC[C@H](C)C1)C[C@@]1(CCCc2cc(Cl)ccc21)CO3 [Example 35] | 0.043 nM
COC[C@@H]1CC=C[C@@H](OC)[C@@H]2CC[C@H]2CN2C[C@@]3(CCCc4cc(Cl)ccc43)COc3ccc(cc32)C(=O)N=[S@](=O)(NC(=O)COC2CCOCC2)C1 [Example 44] | 0.648 nM
COC[C@H]1C/C=C/[C@H](OC)[C@@H]2CC[C@H]2CN2C[C@@]3(CCCc4cc(Cl)ccc43)COc3ccc(cc32)C(=O)N=[S@@](=O)(NC(=O)COC2CCOCC2)C1 [Example 45] | 0.088 nM
COc1nn(C)cc1C(=O)N[S@@]1(=O)=NC(=O)c2ccc3c(c2)N(C[C@@H]2CC[C@H]2[C@@H](OCCN2CCN(C)CC2)/C=C/C[C@H](C)C1)C[C@@]1(CCCc2cc(Cl)ccc21)CO3 [Example 59] | 0.076 nM
CO[C@H]1/C=C/[C@H](OC)[C@H](C)C[S@@](=O)(Nc2ncnc3nn(C)cc23)=NC(=O)c2ccc3c(c2)N(C[C@@H]2CC[C@H]21)C[C@@]1(CCCc2cc(Cl)ccc21)CO3 [Example 67] | 0.06 nM
COc1nn(C)cc1C(=O)N[S@@]1(=O)=NC(=O)c2ccc3c(c2)N(C[C@@H]2CC[C@H]2[C@@H](OC(=O)c2cn(C)nc2OC)/C=C/[C@H](O)[C@H](C)[C@H]1C)C[C@@]1(CCCc2cc(Cl)ccc21)CO3 [Example 89] | 0.53 nM
COc1nn(C)cc1C(=O)N[S@@]1(=O)=NC(=O)c2ccc3c(c2)N(C[C@@H]2CC[C@H]2[C@@H](OC(=O)c2cn(C)nc2OC)CC[C@H](O)[C@H](C)[C@H]1C)C[C@@]1(CCCc2cc(Cl)ccc21)CO3 [Example 90] | 2.19 nM
COc1nn(C)cc1C(=O)N[S@@]1(=O)=NC(=O)c2ccc3c(c2)N(C[C@@H]2CC[C@H]2[C@](O)(CC(=O)N2CC(N4CCOCC4)C2)/C=C/C[C@H](C)C1)C[C@@]1(CCCc2cc(Cl)ccc21)CO3 [Example 107] | 0.036 nM
COc1nn(C)cc1C(=O)N[S@@]1(=O)=NC(=O)c2ccc3c(c2)N(C[C@@H]2CC[C@H]2[C@@H](OC)[C@H](O)[C@@H](O)C[C@H](C)C1)C[C@@]1(CCCc2cc(Cl)ccc21)CO3 [Example 125] | 0.051 nM
COc1nn(C)cc1C(=O)N[S@@]1(=O)=NC(=O)c2ccc3c(c2)N(C[C@@H]2CC[C@H]2[C@@H](OC)/C=C/[C@H](F)[C@H](C)C1)C[C@@]1(CCCc2cc(Cl)ccc21)CO3 [Example 127] | 0.059 nM
CCCO[C@H]1/C=C/[C@H](OC)[C@@H]2CC[C@H]2CN2C[C@@]3(CCCc4cc(Cl)ccc43)COc3ccc(cc32)C(=O)N=[S@](=O)(NC(=O)c2cn(C)nc2OC)C[C@H]1C [Example 144] | 0.202 nM
CO[C@H]1/C=C/C[C@H](C)[C@@H](C)[S@@](=O)(NC(=O)c2cnn(C)c2)=NC(=O)c2ccc3c(c2)N(C[C@@H]2CC[C@H]21)C[C@]1(CO3)C[C@@H]2C[C@@H]2c2cc(Cl)ccc21 [Example 171] | 0.176 nM
CO[C@H]1/C=C/C[C@H](C)C[S@@](=O)(NC(=O)NC2CC2)=NC(=O)c2ccc3c(c2)N(C[C@@H]2CC[C@H]21)C[C@]1(CO3)SCCc2cc(Cl)ccc21 [Example 177] | 0.09 nM
CCn1cc(C(=O)N[S@@]2(=O)=NC(=O)c3ccc4c(n3)N(C[C@@H]3CC[C@H]3[C@@H](OC)/C=C/C[C@H](C)[C@H]2C)C[C@@]2(CCCc3cc(Cl)ccc32)CO4)cn1 [Example 199] | 0.17 nM

Other lines, results leading:

IC50 | Compound
2.12 nM | CO[C@H]1/C=C/C[C@H](C)C[S@@](=O)(Nc2cccnn2)=NC(=O)c2ccc3c(c2)N(C[C@@H]2CC[C@H]21)C[C@@]1(CCCc2cc(Cl)ccc21)CO3 [Example 13]
0.562 nM | COc1nn(C)cc1C(=O)N[S@@]1(=O)=NC(=O)c2ccc3c(c2)N(C[C@@H]2CC[C@H]2[C@@H](OC)C/C=C\[C@H](C)C1)C[C@@]1(CCCc2cc(Cl)ccc21)CO3 (mixture of isomers) [Example 128]
0.2 nM | CO[C@H]1/C=C/C[C@H](C)[C@@H](C)[S@@](=O)(NC(=O)c2cc3n(c2)CCOC3)=NC(=O)c2ccc3c(n2)N(C[C@@H]2CC[C@H]21)C[C@@]1(CCCc2cc(Cl)ccc21)CO3 [Example 202]
0.183 nM | CO[C@H]1/C=C/C[C@H](C)C[S@@](=O)(Nc2nc(O)nc3nn(C)cc23)=NC(=O)c2ccc3c(c2)N(C[C@@H]2CC[C@H]21)C[C@@]1(CCCc2cc(Cl)ccc21)CO3 [Example 11]
0.13 nM | COc1nn(C)cc1C(=O)N[S@@]1(=O)=NC(=O)c2ccc3c(c2)N(C[C@@H]2CC[C@H]2[C@H](OC)[C@H](O)[C@@H](O)C[C@H](C)C1)C[C@@]1(CCCc2cc(Cl)ccc21)CO3 [Example 126]
0.12 nM | CO[C@H]1CCC[C@H](C)C[S@@](=O)(Nc2ncnc3nn(C)cc23)=NC(=O)c2ccc3c(c2)N(C[C@@H]2CC[C@H]21)C[C@@]1(CCCc2cc(Cl)ccc21)CO3 [Example 28]
0.11 nM | COc1nn(C)cc1C(=O)N[S@@]1(=O)=NC(=O)c2ccc3c(c2)N(C[C@@H]2CC[C@H]2[C@H](OC)C#CC[C@H](C)C1)C[C@@]1(CCCc2cc(Cl)ccc21)CO3 [Example 38]
0.1 nM | CO[C@H]1/C=C/C[C@H](C)C[S@@](=O)(Nc2ncnc3nn(C)cc23)=NC(=O)c2ccc3c(n2)N(C[C@@H]2CC[C@H]21)C[C@@]1(CCCc2cc(Cl)ccc21)CO3 [Example 194]
0.084 nM | COc1nn(C)cc1C(=O)N[S@@]1(=O)=NC(=O)c2ccc3c(c2)N(C[C@@H]2CC[C@H]2[C@@](C)(O)/C=C/C[C@H](C)C1)C[C@@]1(CCCc2cc(Cl)ccc21)CO3 [Example 94]
0.06 nM | CO[C@H]1/C=C/CCC[S@@](=O)(NC(=O)c2cnn(C)c2)=NC(=O)c2ccc3c(c2)N(C[C@@H]2CC[C@H]21)C[C@]1(CO3)SCCc2cc(Cl)ccc21 [Example 182]

tested on: SKBR3 cells; assay: SKBR3 Cell Viability Assay; format: cell-based; details: Homo sapiens, SK-BR-3, 72 hours, CellTiter Glo, read-out: MCL1 CV SKBR3 EC50
Experimental: SKBR3 Cell Viability Assay Materials
SKBR3 Cells (ATCC HTB-30) were obtained from ATCC (Manassas, Va.) and cultured in McCoy 5A's medium (ATCC 30-2007)+10% fetal bovine serum (SH30071.03, HyClone, Pittsburgh, Pa.) plus 1× Penicillin-Streptomycin L-glutamine (Corning 30-009-CI, Corning, N.Y.).
The cell viability assay was conducted in a 384-well tissue culture plate (Grenier 781086, Monroe, N.C.) in a total volume of 70 μL. Test compounds were prepared in 1,000×, serially diluted, and pre-spotted into 384-well tissue culture plate by Echo 555 Liquid Handler (Labcyte Inc., San Jose, Calif.). Seventy μL of 6,000 SKBR3 cells were dispensed into each well of the plate and incubated at 37° C. with 5% CO2 for 72 hours. At the end of incubation, 2× CellTiter Glo (CTG) reagents (1 part buffer with 2 parts substrate) (Promega, Madison, Wis.) were prepared, and the plate and the reagent were equilibrated to room temperature for 30 minutes. CTG reagent was added to each plate by Biomek FX at 20 μL/well with 5 times pipetting and mixing to induce cell lysis. Luminescence was read by Envision multimode reader (PerkinElmer). Percent inhibition was calculated as followed: % Inhibition=100%*(Well−Neg)/(Pos−Neg) Neg, negative control, DMSO Pos, positive control, 10 μM Puromycin

EC50 | Compound
4390 nM | C[C@H]1C/C=C/[C@H](O)[C@@H]2CC[C@H]2CN2C[C@@]3(CCCc4cc(Cl)ccc43)COc3ccc(cc32)C(=O)N=[S@](=O)(Nc2nc3nnnn3c3nn(C)cc23)C1 (mixture of isomers) [Example 31]
10.1 nM | COc1nn(C)cc1C(=O)N[S@@]1(=O)=NC(=O)c2ccc3c(c2)N(C[C@@H]2CC[C@H]2[C@@H](OC)/C=C/C(O)(CC(=O)N(C)C)[C@H](C)C1)C[C@@]1(CCCc2cc(Cl)ccc21)CO3 (mixture of isomers) [Example 124]
8140 nM | CO[C@H]1/C=C/C[C@H](C)C[S@@](=O)(Nc2nc(Cl)nc3cn(C)nc23)=NC(=O)c2ccc3c(c2)N(C[C@@H]2CC[C@H]21)C[C@@]1(CCCc2cc(Cl)ccc21)CO3 [Example 16]
